Calls of active or inactive are those of the source. No cut-off for these calls is given here.
Tests used:
[1] = tested on: SU-DHL-6; assay: Antiproliferative activity against human SU-DHL-6 cells assessed as cell growth inhibition incubated for 72 hrs by MTT assay; format: functional
[2] = tested on: SU-DHL-6; assay: Inhibition of AKT phosphorylation in human SU-DHL-6 cells at 0.1 to 1 uM incubated for 24 hrs by Western blot analysis; format: cell-based; details: dose 0.1-1 µM
[3] = tested on: Pfeiffer; assay: Antiproliferative activity against human Pfeiffer cells assessed as cell growth inhibition incubated for 72 hrs by MTT assay; format: functional
[4] = tested on: SU-DHL-6; assay: Inhibition of AKT phosphorylation in human SU-DHL-6 cells at higher concentration incubated for 24 hrs by Western blot analysis; format: cell-based
[5] = tested on: SU-DHL-6; assay: Inhibition of AKT phosphorylation in human SU-DHL-6 cells at 1 to 10000 nM incubated for 24 hrs by Western blot analysis; format: cell-based; details: dose 1-10000 nM
[6] = tested on: SU-DHL-6; assay: Induction of autophagy in human SU-DHL-6 cells assessed as increase in LC3-II to LC3-I ratio at 1 to 100 nM incubated for 24 hrs by Western blot analysis; format: functional, cell-based; details: dose 1-100 nM

SMILES	GI50 [1]	inhibition [2]	GI50 [3]	inhibition [4]	inhibition [5]	Activity [6]
COc1ncc(-c2ccc3ncnc(N[C@H]4CCN(C(=O)CCC(=O)NCCCC(=O)Nc5cccc6c5CN(C5CCC(=O)NC5=O)C6=O)C4)c3c2)cc1C#N (stereo partly drawn)	> 10000 nM	inactive	–	–	–	–
COc1ncc(-c2ccc3ncnc(N[C@H]4CCN(C(=O)CCCCCC(=O)Nc5cccc6c5CN(C5CCC(=O)NC5=O)C6=O)C4)c3c2)cc1C#N (stereo partly drawn)	> 10000 nM	inactive	–	–	–	–
COc1ncc(-c2ccc3ncnc(N[C@H]4CCN(C(=O)C5CCN(CCCCCCCCCCCC(=O)N[C@H](C(=O)N6C[C@H](O)C[C@H]6C(=O)NCc6ccc(-c7scnc7C)cc6)C(C)(C)C)CC5)C4)c3n2)cc1C(=O)Oc1ccccc1	400 nM	Active	1940 nM	–	–	–
COc1ncc(-c2ccc3ncnc(N[C@H]4CCN(C(=O)C5CCN(CCCCCCCCCC(=O)N[C@H](C(=O)N6C[C@H](O)C[C@H]6C(=O)N[C@@H](C)c6ccc(-c7scnc7C)cc6)C(C)(C)C)CC5)C4)c3n2)cc1C(=O)Nc1ccccc1	900 nM	–	–	Active	–	–
COc1ncc(-c2ccc3ncnc(N[C@H]4CCN(C(=O)CCCCC(=O)Nc5cccc6c5CN(C5CCC(=O)NC5=O)C6=O)C4)c3c2)cc1C#N (stereo partly drawn)	> 10000 nM	inactive	–	–	–	–
COc1ncc(-c2ccc3ncnc(N[C@H]4CCN(C(=O)CCCCCCC(=O)N[C@H](C(=O)N5C[C@H](O)C[C@H]5C(=O)NCc5ccc(-c6scnc6C)cc5)C(C)(C)C)C4)c3c2)cc1C#N	> 10000 nM	inactive	–	–	–	–
COc1ncc(-c2ccc3ncnc(N[C@H]4CCN(CCCCCCC(=O)N[C@H](C(=O)N5C[C@H](O)C[C@H]5C(=O)NCc5ccc(-c6scnc6C)cc5)C(C)(C)C)C4)c3n2)cc1C(=O)Oc1ccccc1	1230 nM	Active	1410 nM	–	–	–
COc1ncc(-c2ccc3ncnc(N[C@H]4CCN(CCCCCCCC(=O)N[C@H](C(=O)N5C[C@H](O)C[C@H]5C(=O)NCc5ccc(-c6scnc6C)cc5)C(C)(C)C)C4)c3n2)cc1C(=O)Oc1ccccc1	900 nM	Active	1280 nM	–	–	–
COc1ncc(-c2ccc3ncnc(N[C@H]4CCN(C(=O)C5CCN(CCCCCCCCC(=O)N[C@H](C(=O)N6C[C@H](O)C[C@H]6C(=O)NCc6ccc(-c7scnc7C)cc6)C(C)(C)C)CC5)C4)c3n2)cc1C(=O)Oc1ccccc1	730 nM	Active	600 nM	–	–	–
COc1ncc(-c2ccc3ncnc(N[C@H]4CCN(C(=O)C5CCN(CCCCCCCCCC(=O)Nc6cccc7c6CN(C6CCC(=O)NC6=O)C7=O)CC5)C4)c3n2)cc1C(=O)Oc1ccccc1 (stereo partly drawn)	490 nM	Active	> 10000 nM	–	–	–
COc1ncc(-c2ccc3ncnc(N[C@H]4CCN(C(=O)C5CCN(CCCCCCCCCCC(=O)N[C@H](C(=O)N6C[C@H](O)C[C@H]6C(=O)NCc6ccc(-c7scnc7C)cc6)C(C)(C)C)CC5)C4)c3n2)cc1C(=O)Oc1ccccc1	180 nM	Active	340 nM	–	Active	Active
COc1ncc(-c2ccc3ncnc(N[C@H]4CCN(C(=O)C5CCN(CCCCCCCC(=O)N[C@H](C(=O)N6C[C@H](O)C[C@H]6C(=O)NCc6ccc(-c7scnc7C)cc6)C(C)(C)C)CC5)C4)c3n2)cc1C(=O)Oc1ccccc1	760 nM	Active	770 nM	–	–	–
COc1ncc(-c2ccc3ncnc(N[C@H]4CCN(C(=O)C5CCN(CCCCCCCCCCCCC(=O)N[C@H](C(=O)N6C[C@H](O)C[C@H]6C(=O)NCc6ccc(-c7scnc7C)cc6)C(C)(C)C)CC5)C4)c3n2)cc1C(=O)Oc1ccccc1	480 nM	Active	1060 nM	–	–	–
COc1ncc(-c2ccc3ncnc(N[C@H]4CCN(CCCCCCCCC(=O)N[C@H](C(=O)N5C[C@H](O)C[C@H]5C(=O)NCc5ccc(-c6scnc6C)cc5)C(C)(C)C)C4)c3n2)cc1C(=O)Oc1ccccc1	1370 nM	Active	1250 nM	–	–	–
COc1ncc(-c2ccc3ncnc(N[C@H]4CCN(C(=O)C5CCN(CCCCCC(=O)N[C@H](C(=O)N6C[C@H](O)C[C@H]6C(=O)NCc6ccc(-c7scnc7C)cc6)C(C)(C)C)CC5)C4)c3n2)cc1C(=O)Oc1ccccc1	2470 nM	Active	> 10000 nM	–	–	–
COc1ncc(-c2ccc3ncnc(N[C@H]4CCN(C(=O)C5CCN(C(=O)CCCCCCCCCN[C@H](C(=O)N6C[C@H](O)C[C@H]6C(=O)NCc6ccc(-c7scnc7C)cc6)C(C)(C)C)CC5)C4)c3n2)cc1C(=O)Oc1ccccc1	300 nM	Active	> 10000 nM	–	–	–
COc1ncc(-c2ccc3ncnc(N[C@H]4CCN(C(=O)C5CCN(CCCCCCCCCC(=O)N[C@H](C(=O)N6C[C@@H](O)C[C@H]6C(=O)N[C@@H](C)c6ccc(-c7scnc7C)cc6)C(C)(C)C)CC5)C4)c3n2)cc1C(=O)Oc1ccccc1	870 nM	–	–	Active	–	–
COc1ncc(-c2ccc3ncnc(N[C@H]4CCN(C(=O)CCC(=O)NCCCCCC(=O)Nc5cccc6c5CN(C5CCC(=O)NC5=O)C6=O)C4)c3c2)cc1C#N (stereo partly drawn)	> 10000 nM	inactive	–	–	–	–
COc1ncc(-c2ccc3ncnc(N[C@H]4CCN(C(=O)C5CCN(CCCCCCC(=O)N[C@H](C(=O)N6C[C@H](O)C[C@H]6C(=O)NCc6ccc(-c7scnc7C)cc6)C(C)(C)C)CC5)C4)c3n2)cc1C(=O)Oc1ccccc1	2630 nM	Active	2960 nM	–	–	–
COc1ncc(-c2ccc3ncnc(N[C@H]4CCN(CCCCCCCCCC(=O)N[C@H](C(=O)N5C[C@H](O)C[C@H]5C(=O)NCc5ccc(-c6scnc6C)cc5)C(C)(C)C)C4)c3n2)cc1C(=O)Oc1ccccc1	2480 nM	Active	1370 nM	–	–	–
COc1ncc(-c2ccc3ncnc(N[C@H]4CCN(C(=O)CCC(=O)NCCOCCOCC(=O)Nc5cccc6c5CN(C5CCC(=O)NC5=O)C6=O)C4)c3c2)cc1C#N (stereo partly drawn)	> 10000 nM	inactive	–	–	–	–
COc1ncc(-c2ccc3ncnc(N[C@H]4CCN(C(=O)CCC(=O)NCC(=O)Nc5cccc6c5CN(C5CCC(=O)NC5=O)C6=O)C4)c3c2)cc1C#N (stereo partly drawn)	> 10000 nM	inactive	–	–	–	–
COc1ncc(-c2ccc3ncnc(N[C@H]4CCN(C(=O)CCCCCCC(=O)Nc5cccc6c5CN(C5CCC(=O)NC5=O)C6=O)C4)c3c2)cc1C#N (stereo partly drawn)	> 10000 nM	inactive	–	–	–	–
COc1ncc(-c2ccc3ncnc(N[C@H]4CCN(C(=O)CCC(=O)NCCC(=O)Nc5cccc6c5CN(C5CCC(=O)NC5=O)C6=O)C4)c3c2)cc1C#N (stereo partly drawn)	> 10000 nM	inactive	–	–	–	–
